Measured values published in US8501955B2, “Acetamide derivatives as glucokinase activators, their process and medicinal application” (Advinus Therapeutics Private Limited, priority 2007, dated 2013).

Experiments:
[1] = target: T1, purified human recombinant GK (Homo sapiens, UniProt P35557); assay: Glucokinase activity assay (coupled enzymatic GK/G6PD assay, NADH absorbance at 340 nm); format: biochemical; details: for EC50: EC50 of % change in S0.5 of glucokinase for glucose, sigmoidal fit, read-out: EC50 (with respect to % ΔS0.5); for Emax: Emax of % change in S0.5, vehicle S0.5 = 0%, 0 mM glucose = 100%, read-out: % Emax (with respect to % ΔS0.5)
T1 sequence (P35557 1-465): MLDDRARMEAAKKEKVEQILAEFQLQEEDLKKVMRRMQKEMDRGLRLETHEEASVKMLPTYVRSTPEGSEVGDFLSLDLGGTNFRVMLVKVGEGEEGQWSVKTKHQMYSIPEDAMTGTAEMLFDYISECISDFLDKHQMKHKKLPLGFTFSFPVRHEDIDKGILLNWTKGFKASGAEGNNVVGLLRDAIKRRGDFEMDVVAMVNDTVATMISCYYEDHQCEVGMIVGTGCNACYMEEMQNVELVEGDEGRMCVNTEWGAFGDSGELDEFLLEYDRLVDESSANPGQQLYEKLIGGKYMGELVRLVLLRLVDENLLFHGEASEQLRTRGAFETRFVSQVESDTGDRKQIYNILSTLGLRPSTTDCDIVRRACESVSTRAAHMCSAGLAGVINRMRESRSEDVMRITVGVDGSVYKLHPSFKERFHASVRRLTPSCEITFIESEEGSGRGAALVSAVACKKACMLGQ
Excerpt: The glucokinase (GK) assay is a coupled enzymatic assay. GK catalyzes the first step of glycolysis, the conversion of glucose to glucose-6-phosphate (G6P) in the presence of ATP. G6P in turn is converted by glucose-6-phosphate dehydrogenase (G6PD) to 6-phosphogluconate, a process that requires NAD, resulting in NADH formation. Since the GK-catalyzed step is the rate-limiting step of this coupled enzymatic process, the rate of accumulation of 6-phosphogluconate and NADH is directly proportional to the rate of glucose phosphorylation by GK. The rate of the GK-catalyzed reaction can therefore be measured by monitoring the increase in NADH absorbance at 340 nm.
The assay is carried out according to the protocol outlined in Hariharan et al (1997), Diabetes 46: 11-16. Briefly, the test compounds are incubated in a reaction mix containing 25 mM HEPES (pH 7.2), 10 mM MgCl2, 100 mM KCl, 5 mM ATP, 2 mM DTT, 0.5 mM NAD, 1 U/ml Leuconostoc mesenteroides G6PD, 0.3 U/ml of purified human recombinant GK, and different concentrations of glucose. Enzymatic activity is calculated from the initial reaction velocity, measured from the change in NADH absorbance as a function of time.
Compounds described in formula (I), in concentration ranges from 1.0 nM to […] are tested in the purified human recombinant glucokinase assay described above.
A compound is considered to be a glucokinase activator if it, in its testable range of concentrations, yields a higher rate of glucose phosphorylation than in its absence at a particular glucose concentration, for example at 5 mM glucose.
Compounds of general formula (I) are tested in the in vitro GK enzymatic assay to monitor dose-dependent effect on glucokinase activation (in kinetic mode), as described above, at various glucose concentrations. The S0.5 of glucokinase for glucose at different concentration of each compound of interest is calculated from the following modified version of the Michaelis-Menten equation, V=Vmax[S]^n/(S0.5^n+[S]^n), where [S] is the glucose concentration and n is the Hill coefficient (taken as 1.7 to account for the sigmoidal kinetics of glucokinase with respect to glucose). The S0.5 is plotted against the log of the compound concentration. The change in the S0.5 of glucokinase (ΔS0.5) for glucose is calculated by subtracting the S0.5 at each concentration of the compound from the S0.5 in the vehicle control. The ΔS0.5 is then normalized to a percent scale, where the S0.5 in the vehicle control is set to 0% and 0 mM glucose is set to 100%. The % ΔS0.5 is then plotted against the log of the compound concentration. The EC50 and Emax of % change in S0.5 is obtained from the sigmoidal fit of the data. Detailed protocol has been described in our copending application no. WO 2008/104994 which is incorporated herein by reference. Characterization data of some representative glucokinase activators of the present disclosure, which are illustrative but not limiting, are given in table 1 below.

primary rat hepatocytes = assay: Measurement of glycogen synthesis in primary rat hepatocytes; format: cell-based; details: Rattus norvegicus, Hepatocyte, 3 h, 10 μM compound, 10 mM glucose, fold increase over DMSO control
Experimental: Primary hepatocytes are collected from male Wistar rats, and tested for viability by trypan blue exclusion. Primary hepatocytes cultures with viability greater than 95% are selected for the glycogen synthesis assay. The cells are seeded in a 48-well plate at a density of 200,000 cells/well in 250 μl Minimal Essential Medium (MEM) containing 10% foetal calf serum (FCS) and 1.7 μM insulin, and incubated for 4 hours at 37° C. to allow attachment. The medium is replaced with fresh MEM containing 10% FCS, 1.7 μM insulin and 10 nM dexamethasone, and the cells are incubated for 16 hours at 37° C. The medium is then replaced with fresh MEM (serum-free) containing 2 μCi/ml of D-[U^14C]-Glucose along with 10 μM of the compound in a final DMSO concentration of 0.1%. The final glucose concentration is brought to 10 mM by the addition of D-Glucose (MEM already contains 5 mM glucose). The cells are incubated for 3 hours at 37° C. The cells are washed twice with 150 mM NaCl, lysed with 0.1 N NaOH, and the lysate precipitated with 8% w/v trichloroacetic acid (TCA) and 1 mg/well unlabeled glycogen as carrier. Cell debris is pelleted by centrifugation, the supernatant is removed, and the glycogen is precipitated with 63% ethanol. After another round of centrifugation, the supernatant is removed, and the pellet containing the precipitated glycogen is dried overnight. De novo synthesized glycogen is estimated in a scintillation counter (MicroBeta Trilux, Perkin Elmer), and expressed as fold increase over DMSO control.
The protocol for the glycogen assay is based on the method described in “Biochem J. 1990 Feb. 15; 266(1): 91-102” with a few minor modifications. The protocol for isolation of primary rat hepatocytes is based on the method described in “Methods in Enzymology, Vol. III. pp 34-50. Ed. by S. P. Colowick and N. O. Kaplan. New York, Academic Press, 1957” with a few minor modifications.
Compounds described in formula (I), in concentration ranges from 1.0 nM to 500 μM, are tested in glycogen synthesis assay described above.

[2] = Kamata et al (2004) Structure 12: 429-438; cited from earlier work

Compound | EC50 [1] [nM] | Emax [1] [%] | fold induction at 10 µM (primary rat hepatocytes) | melting point [°C] | hypoglycemia in animal efficacy models [2]
O=C(O)Cc1csc(NC(=O)C(Oc2ccc(F)cc2F)c2ccc(S(=O)(=O)C3CC3)cc2)n1 (single isomer, unassigned; (-)) [Example E3, (−){2-[2-(4-Cyclopropanesulfonylphenyl)-2-(2,4-difluorophenoxy)acetylamino]-thiazol-4-yl}acetic acid] | 2370 | 90 | 9.5 | – | –
O=C(Nc1nc2cccnc2s1)C(OC1CCOCC1)c1ccc(S(=O)(=O)C2CC2)cc1 (single isomer, unassigned; (-)) [Example H10A, (−)2-(4-Cyclopropanesulfonyl-phenyl)-2-(tetrahydro-pyran-4-yloxy)-N-thiazolo[5,4-b]pyridin-2-yl-acetamide] | 150 | 94 | 4.1 | – | –
O=C(Nc1ncc(F)s1)C(Oc1ccc(F)cc1F)c1ccc(S(=O)(=O)C2CC2)cc1 (centres unmarked) [Example A3, 2-(4-Cyclopropanesulfonylphenyl)-2-(2,4-difluorophenoxy)-N-(5-fluorothiazol-2-yl)-acetamide] | 200 | 95 | 2.9 | – | –
O=C(Nc1nccs1)C(Oc1ccc(F)cc1F)c1ccc(S(=O)(=O)C2CCCC2)cc1 (centres unmarked) [Example A10, 2-(4-Cyclopentanesulfonylphenyl)-2-(2,4-difluorophenoxy)-N-thiazol-2-yl-acetamide] | 110 | 95 | 4.3 | – | –
COc1cnc(NC(=O)C(Oc2ccc(F)cc2F)c2ccc(S(=O)(=O)C3CC3)cc2)s1 (centres unmarked) [Example A75, 2-(4-Cyclopropanesulfonyl-phenyl)-2-(2,4-difluoro-phenoxy)-N-(5-methoxy-thiazol-2-yl)-acetamide] | 76 | 93 | 7.1 | – | –
O=C(O)Cc1csc(NC(=O)C(Oc2ccc(F)cc2)c2ccc(S(=O)(=O)C3CC3)cc2)n1 (centres unmarked) [Example B1, {2-[2-(4-Cyclopropanesulfonylphenyl)-2-(4-fluorophenoxy)acetylamino]thiazol-4-yl}acetic acid] | – | – | – | 72 to 73 | –
O=C(O)Cc1nc(NC(=O)C(Oc2ccc(Cl)cc2)c2ccc(S(=O)(=O)C3CC3)cc2)sc1Cl (centres unmarked) [Example B6, {5-Chloro-2-[2-(4-chlorophenoxy)-2-(4-cyclopropanesulfonylphenyl)-acetylamino]-thiazol-4-yl}acetic acid] | 830 | 90 | 8.6 | – | –
O=C(O)Cc1csc(NC(=O)C(Oc2ccc(F)cc2F)c2ccc(S(=O)(=O)C3CCCCC3)cc2)n1 (centres unmarked) [Example B16, {2-[2-(4-Cyclohexanesulfonylphenyl)-2-(2,4-difluorophenoxy)acetylamino]-thiazol-4-yl}acetic acid] | 1000 | 90 | 5.5 | – | –
O=C(O)Cc1nc(NC(=O)C(Oc2ccc3[nH]ccc3c2)c2ccc(S(=O)(=O)C3CC3)cc2)sc1Cl (centres unmarked) [Example B19, {5-Chloro-2-[2-(4-cyclopropanesulfonylphenyl)-2-(1H-indol-5-yloxy)acetylamino]thiazol-4-yl}acetic acid] | 3300 | 95 | 3.3 | – | –
CC(=O)Nc1cccc(OC(C(=O)Nc2nc(CC(=O)O)c(Cl)s2)c2ccc(S(=O)(=O)C3CC3)cc2)c1 (centres unmarked) [Example B20, {2-[2-(3-Acetylaminophenoxy)-2-(4-cyclopropanesulfonylphenyl)acetylamino]-5-chloro-thiazol-4-yl}acetic acid] | 6800 | 90 | 6.8 | – | –
O=C(O)c1cccc(Oc2cnc(NC(=O)C(OC3CCOCC3)c3ccc(S(=O)(=O)C4CC4)cc3)s2)c1 (centres unmarked) [Example B92, 3-{2-[2-(4-Cyclopropanesulfonyl-phenyl)-2-(tetrahydro-pyran-4-yloxy)-acetylamino]-thiazol-5-yloxy}-benzoic acid] | 170 | 91 | 7.8 | – | –
O=C(Nc1ncc(Oc2ccc(C(=O)N3CCC3)cc2)s1)C(OC1CCOCC1)c1ccc(S(=O)(=O)C2CC2)cc1 (centres unmarked) [Example G6] | 110 | 90 | 6.2 | – | –
Ro-28-1675 | – | – | – | – | cause hypoglycemia
